Reference: US5360796A, “Imidazo[1,2-a]pyridinylalkyl phosphonic acid compounds for treatment of neurotoxic injury” (G. D. Searle & Co., priority 1991, dated 1994)
Where a name gives a salt, the structure may show the parent alone. Read-outs that look alike come from different tables or passages of the source.

Experiments:
[1] = tested on: cGMP in cerebellum; assay: Assay for Effect on cGMP Levels in Cerebellum; assay type: in vivo, mouse (Swiss-Webster); conditions: Mus musculus, sc, 0.5 h; 30 min prior to sacrifice; read-out: Decrease in cGMP ED50
Description: The purpose of this assay is to determine the extent of in vivo bioavailability and the potency as an NMDA antagonist of compound of the invention as compared to known NMDA antagonists, namely, 3(2-carboxypiperizine-4-yl)propyl-1-phosphonic acid (CPP) and cis-4-phosphonomethyl-2-piperidinecarboxylic acid (CGS 19755). Male Swiss-Webster mice (17-24 g were injected sub-cutaneously (s.c.) with compound of the invention and the known NMDA antagonist standards 30 minutes prior to sacrifice by focussed microwave irradiation. Groups consisted of 7-10 mice. Compounds of Ex. #7 was dissolved in isotonic saline and all compounds were administered in a volume of 0.2 ml per mouse. Cerebella samples were extracted in IN HCl. Hydrochloric acid in extracts of the cerebellum were freeze-dried for assay of cGMP with a commercial RIA kit (NEN). Statistics (Dunett's t-test) were performed as described previously [P. L. Wood et al., Neurochem., 19, 975-982 (1980)]. ED50 values were calculated from log-logit transformation of the dose-response data.

[2] = tested on: NMDA; conditions: D. E. Murphy et al, J. Pharmacol. Exp. Ther. 1987; cited from earlier work
[3] = biological target: AMPA; assay: [3H]AMPA (QUIS) binding assay; set-up: species or system rat; conditions: 10 nM [3H]AMPA, 100 mM KSCN, synaptic plasma membranes, pH 7.4, 0-4° C., 10 min; read-out: NMDA Receptor Binding Data, Ki IC50 Binding AMPA
Description: (§1) Synaptic plasma membranes (SPM) were prepared as previously described [Monahah, J. B. and Michel, J., "Identification and Characterization of an N-methyl-D-aspartate-specific L[^3 H]glutamate Recognition Site in Synaptic Plasma Membranes, J. Neurochem., 48, 1699-1708 (1987)]. The SPM were stored at a concentration of 10-15 mg/ml in 0.32M sucrose, 0.5 mM EDTA, 1 mM MgSO4, 5 mM Tris/SO4, pH 7.4, under liquid nitrogen. The identity and purity of the subcellular fractions were confirmed by both electron microscopy and marker enzymes. Protein concentrations were determined by using a modification of the method of Lowry [Ohnishi, S. T. and Barr, J. K., "A Simplified Method of Quantitating Proteins using the Biuret and Phenol Reagents", Anal. Biochem., 86, 193-197 (1978)]. The SPM were treated identically for the [^3 H]AMPA (QUIS), [^3 H]kainate and sodium-dependent L-[^3 H]-glumatate binding assays. The SPM were thawed at room temperature, diluted twenty-fold with 50mM Tris/acetate, pH 7.4, incubated at 37° C. for 30 minutes, and centrifuged at 100,000 g for 15 minutes. The dilution, incubation, and centrifugation was repeated a total of three times. Prior to use in the NMDA-specific L-[^3 H]-glutamate binding assay the SPM were thawed, diluted twenty fold with 50 mM Tris/acetate, pH 7.4 containing 0.04% (v/v) Triton X-100, incubated for 30 minutes at 37° C. and centrifuged as described above. The Triton X-100 treated membranes were washed with 50 mM Tris/acetate, pH 7.4 and centrifuged at 100,000 g for 15 minutes a total of four times. […] The basic procedure for the receptor subclass binding assays was similar. This general method involved adding the radioligand (12.5 nM L-[^3 H] glutamate; 0.5 nM [^3 H]kainate or 10 nM [^3 H]AMPA) to the appropriate concentration of the test compound and initiating the assay by the addition of ice cold synaptic plasma membranes (0.2-0.45 mg). The binding assays were performed in 1.5 mL centrifuge tubes with the total volume adjusted to 1.0 mL. Additions of test compounds were made in 50 mM Tris/acetate, pH 7.4 and incubations were carried out at 0°-4° C. The incubation time for the NMDA and the AMPA binding assays was 10 minutes, for the kainate binding assay 60 minutes and for the sodium-dependent glutamate binding assay 15 minutes. The AMPA binding assay contained 100 mM KSCN and the sodium-dependent glutamate binding assay contained 150 mM sodium acetate in addition to the previously described reagents. To terminate the incubation, the samples were centrifuged for 15 minutes at 12,000 g and 4° C. in a Beckman Microfuge 12. The supernatant was aspirated and the pelleted membranes dissolved in Beckman BTS-450 tissue solubilizer for a minimum of 6 hours at room temperature. Beckman MP scintillation cocktail containing 7 mL/1 acetic acid was then added and the samples counted on a Beckman LS 5800 or 3801 liquid scintillation counter with automatic corrections for quenching and counting efficiency. Nonspecific binding was defined as the residual binding in the presence of either excess L-glutamate (0.1-0.4 mM), kainate (0.01 mM), or NMDA (0.5 mM), and was 15-25% of the total binding in the NMDA binding assay, 19-27% in the AMPA binding assay, 20-30% in the kainate binding assay and 10-15% in the sodium-dependent binding assay. Radioligand binding to the synaptic plasma membranes was analyzed using Scatchard and Hill transformations and the Ki values of the compounds determined using logit-log transformations. Calculations and regression analysis were performed using templates developed for Lotus 1, 2, 3 as previously described [Pullan, L. M. "Automated Radioligand Receptor Binding Analysis with Templates for Lotus", Computer Appln. Biosci., 3, 131 (1987)]. Binding results are reported in Table I for example compounds of the invention.

[4] = biological target: NMDA receptor; assay: NMDA-Selective Glutamate Binding Assay (L-[3H]glutamate); set-up: species or system rat; conditions: 12.5 nM L-[3H]glutamate, synaptic plasma membranes, read-out: NMDA Receptor Binding Data, Ki IC50 Binding NMDA
Description: as §1

[5] = biological target: TCP (1-[1-(2-thienyl)cyclohexyl]piperidine) binding; assay: TCP Modulation Assay; set-up: species or system rat; conditions: for Ki: 2 nM tritiated TCP, 0.05 mM L-glutamate, rat brain SPM, read-out: TCP Ki IC50
Description: The effect on the TCP (1-[1-(2-thienyl)cyclohexyl]piperidine) binding was measured in rat brain synaptic membranes (SPM) prepared as previously described [J. B. Monahah & J. Michel; J. Neurochem. […] Prior to their use in the binding assay, frozen SPM were thawed, diluted twenty fold with 50 mM Tris/acetate (pH 7.4 containing 0.04% (v/v) Triton X-100), incubated for 30 min. at 37° C. and centrifuged at 95,000 xg for 15 min. The Triton X-100 treated SPM were washed with 5 mM Tris/HCl, pH 7.4 and centrifuged a total of six times. […] The samples were filtered through glass fiber filters (Schleicher & Schuell #32) which have been pretreated with 0.05% (v/v) polyethylenimine, washed 4 times with 2 ml of ice-cold 5 mM Tris/HCl buffer, and then counted on a Beckman LS 5800 liquid scintillation counter with automatic corrections for quenching and counting efficiency. Inhibition of TCP binding was measured as a decrease in the binding in the presence of 0.05 mM L-glutamate. Non-specific binding was defined as the residual binding in the presence of […] phencyclidine.

Compound	Ki [3] [µM]	Ki ([4]; pH 7.4, 0-4° C., 10 min) [µM]	other results
O=C(O)[C@H]1C[C@@H](CP(=O)(O)O)CCN1 (relative stereo) [CGS 19755, cis-4-phosphonomethyl-2-piperidinecarboxylic acid, reference compound]			ED50 [1]: 1 mg/kg
O=C(O)C1CN(CCCP(=O)(O)O)CCN1 (stereo not drawn) [CPP, 3-(2-carboxypiperazin-4-yl)propyl-1-phosphonic acid, reference compound]			NMDA antagonism (in words) [2]: potent and selective NMDA antagonist; ED50 [1]: 7.4 mg/kg
O=C(O)c1cn2cc(CP(=O)(O)O)ccc2n1 [Example 13, 6-(phosphonomethyl)imidazo[1,2-a]pyridine-2-carboxylic acid]	> 300	> 100	
O=C(O)c1cn2ccc(CP(=O)(O)O)cc2n1 [Example 18, 7-(phosphonomethyl)imidazo[1,2-a]pyridine-2-carboxylic acid]	> 300	> 100	
O=C(O)c1cn2cccc(CP(=O)(O)O)c2n1 [Example 23, 8-(phosphonomethyl)imidazo[1,2-a]pyridine-2-carboxylic acid]	> 300	4.5	Ki ([5]; pH 7.4, 25° C., 60 min): 14 µM; Ki ([5]; second batch): 7.7 µM; Ki ([4]; Second batch): 10.5 µM
O=C(O)c1cn2c(CP(=O)(O)O)c(Cl)ccc2n1 [Example 30, 6-chloro-5-(phosphonomethyl)imidazo[1,2-a]pyridine-2-carboxylic acid]	> 300	> 100	
Cc1ccc(P(=O)(O)O)c2nc(C(=O)O)cn12 [Example 49, 5-methyl-8-phosphonoimidazo[1,2-a]pyridine-2-carboxylic acid]		> 10	
O=C(O)c1cn2c(P(=O)(O)O)cccc2n1 [Example 53, 5-phosphonoimidazo[1,2-a]pyridine-2-carboxylic acid]		> 10	
O=C(O)c1cn2c(C(O)P(=O)(O)O)cccc2n1 (stereo not drawn) [Example 57, 5-(hydroxyphosphonomethyl)imidazo[1,2-a]pyridine-2-carboxylic acid, monohydrochloride]	> 300	5.8	TCP Binding Data (result in words) ([5]; no number given): Antag.
Cc1c(C(=O)O)nc2c(CP(=O)(O)O)cccn12 [Example 67, 3-methyl-8-(phosphonomethyl)imidazo[1,2-a]pyridine-2-carboxylic acid, monohydrochloride]	> 300	> 100	
